This passage reports melting point, IC50 and inhibition in vivo results from patent US8669246B2, “Substituted amide compound” (Astellas Pharma Inc., priority 2009, dated 2014).

The target of one data set is T1, human LPA1 (Homo sapiens, UniProt Q92633).
T1 construct: expressed in transfected cells
Description: Antagonistic action on human LPA1: inhibition of LPA-stimulated increase in intracellular calcium ion concentration in human LPA1-CHO cells. In kind it is cell-based. The settings on record: LPA 100 nM, Fluo-4/FLIPR calcium signal. The method, then: Antagonistic Action of Compound of Formula (I) on Human LPA1
The antagonistic action on a human LPA 1 was evaluated with an index of an inhibitory action on the LPA-stimulated increase in intracellular calcium ion concentration, using human LPA 1-CHO cells [cells in which human LPA1 receptors are stably expressed in CHO (dhfr gene-deficient) cell lines].
Establishment of human LPA1-CHO cells was performed based on the basic genetic engineering techniques.
The established cells were maintained by passage in a nucleic acid-free α-MEM medium (Invitrogen) containing 10% FBS, 1% penicillin/streptomycin (Invitrogen), and 100 nM methotrexate, and before experiment, the medium was replaced with a medium that had been reduced to 1% of the […] concentration, then seeded in 96-well plates to 1.5×10e^5 cells/100 μL/well, and incubated overnight.
On the day of experiment, a 0.5 μM Fluo-4 solution [a solution prepared by adding 20 mM HEPES (Sigma), […] probenecid (Nacalai Tesque), 0.05% BSA, 0.5 μM Fluo-4 AM (Dojindo Laboratories), and 0.1% Pluronic […] (Molecular Probe Co.) to a Hanks Balanced Solt Solution (Invitrogen)] was added to the cells, and Fluo-4 was loaded on the cells by incubating for 2 hours at room temperature.
After loading Fluo-4, the Fluo-4 solution was replaced with a reaction solution [a solution obtained by adding 20 mM HEPES, […] probenecid, and 0.05% BSA to a Hanks Balanced Solt Solution], and then measurement was performed using a device for measuring an intracellular calcium concentration (FLIPR tetra, Molecular Devices Inc.).
A reaction solution in which the compound of the formula (I) (with a final concentration of 0.1 nM to 10 μM) had been dissolved was added to each of the wells, the signals were measured over time for 4 minutes, then a reaction solution in which LPA (final concentration 100 nM) had been dissolved was added thereto, and the signals were measured over time for 2 minutes. The difference between the maximum and minimum response during one minute from addition of LPA was calculated. The inhibitory activity was calculated, with a response when LPA only (not including the compound) was added was taken as 0% inhibition, and a response when a reaction solution not including both of the compound and LPA was added was taken as 100% inhibition. Then the 50% inhibitory concentration was calculated as an IC50 value (nM).
Human LPA1-CHO cells used in the present test were the cells with the same sequence as described in the pamphlet of International Publication WO 99/19513 were used. Further, Ex represents Example No. as denoted below.
A general note: Calcium flux is commonly read through the fluorescence of an indicator in the cells.

Data set [1] concerns LPA-induced increase in urethral pressure. The experiment in a line: Inhibitory action on LPA-induced increase in urethral pressure in rats under anesthesia. In kind it is in vivo, rat (male Wistar). The settings on record: Rattus norvegicus, 5 min; 0.1 mg/kg intravenous, LPA (1-oleoyl) 3 mg/kg iv after 5 minutes, anesthetized rats, vs solvent; read-out: Inhibitory rate. The method, then:
Inhibitory Action of Compound of Formula (I) on LPA-Induced Increase in Urethral Pressure in Rats Under Anesthesia (with Intravenous Administration at 0.1 mg/kg) Male Wistar rats (Charles River, 9- to 12-week old) were anesthetized with urethane (1.2 g/kg ip), and held in the supine position on an operating table kept at 37° C. The lower abdominal portion was midline-incised and the bladder was thus exposed. A small portion of the bladder apex was incised, a microchip pressure transducer (Millar) was inserted antegrade, and then placed in the urethra, and the urethral pressure was recorded continuously. In addition, a cannula for administration of a drug was placed into the femoral vein. After about 1 hour of stabilization, the compound of formula (I) (0.1 mg/kg) was administered intravenously. After 5 minutes, LPA (1-oleoyl) was administered intravenously at 3 mg/kg, and the changes in the urethral pressure were recorded. The inhibitory rates (%) of the compound of the formula (I) on the LPA-stimulated increase in the urethral pressure compared with those after administration of the solvent of the compound of the formula (I) were recorded.

T1 sequence (Q92633 whole entry): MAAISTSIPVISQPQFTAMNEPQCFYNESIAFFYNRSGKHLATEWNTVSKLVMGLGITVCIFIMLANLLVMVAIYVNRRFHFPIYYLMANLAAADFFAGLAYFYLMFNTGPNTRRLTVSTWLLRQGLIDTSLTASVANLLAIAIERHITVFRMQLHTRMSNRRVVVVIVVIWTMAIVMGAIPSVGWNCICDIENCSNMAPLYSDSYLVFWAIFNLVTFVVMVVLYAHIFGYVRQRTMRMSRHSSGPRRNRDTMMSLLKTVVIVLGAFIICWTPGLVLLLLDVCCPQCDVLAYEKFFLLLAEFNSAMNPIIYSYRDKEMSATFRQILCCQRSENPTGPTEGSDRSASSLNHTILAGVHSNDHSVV

The term melting point denotes the temperature, or range, at which the solid turns liquid. `COc1ccc(C(O)C(=O)N(CCCc2ccccc2)Cc2nc(C(=O)NS(=O)(=O)N(C)C)c(C)s2)cn1` (stereo not drawn) [Example 28] showed a melting point of 178 to 179 °C.
The term IC50 denotes the concentration needed to halve the response being measured. On to `COc1cc(C(=O)N(CCCc2ccccc2)Cc2nc(C(=O)NS(C)(=O)=O)c(C)s2)cc(OC)c1C` [Example 109], for which the melting point was 128 to 131 °C. In addition, the 50% inhibitory concentration (IC50) on human LPA1 was found to be 22 nM.
Regarding `CNS(=O)(=O)NC(=O)c1nc(CN(CCCc2ccccc2)C(=O)c2cc(OC)c(C)c(OC)c2)cs1` [Example 63], in data set [1], the inhibition in vivo at 0.1 mg/kg worked out at 28%.
Same read-out and setting: the same measure for `COc1cc(C(=O)N(CCCc2ccccc2)Cc2nc(C(=O)NS(N)(=O)=O)cs2)cc(OC)c1Br` [Example 132]: 42%.
Molecule `COc1ccc([C@@H](O)C(=O)N(CCCc2ccccc2)Cc2nc(C(=O)NS(=O)(=O)C(C)C)c(C)s2)cc1` [Example 285] came in with a melting point of 137 to 138 °C. Besides, on human LPA1, the IC50 amounted to 32 nM.
Take `COc1cc(C(=O)N(CCCc2ccccc2)Cc2nc(C(=O)NS(C)(=O)=O)cs2)cc(OC)c1C` [Example 108]: the melting point lay within 133 to 134 °C. Further, the IC50 on human LPA1 came to 11 nM.
Take `COc1cc(C(=O)N(CCCc2ccccc2)Cc2nc(C(=O)NS(=O)(=O)c3cccs3)cs2)cc(OC)c1C` [Example 5, 2-{[(3,5-dimethoxy-4-methylbenzoyl)(3-phenylpropyl)amino]methyl}-N-(2-thienylsulfonyl)-1,3-thiazole-4-carboxamide]: the IC50 on human LPA1 was found to be 7.8 nM.
As for `C=Cc1c(OC)cc(C(=O)N(CCCc2ccccc2)Cc2nc(C(=O)NS(N)(=O)=O)cs2)cc1OC` [Example 130], in data set [1], the inhibition in vivo at 0.1 mg/kg was 39%.
As to `COc1cc(C(=O)N(CCCc2ccccc2)Cc2nc(C(=O)NS(N)(=O)=O)cs2)cc(OC)c1C` [Example 69], the melting point lay within 147 to 150 °C. For the same molecule, the IC50 at human LPA1 came to 8.8 nM. The inhibition in vivo at 0.1 mg/kg in data set [1] came out at 33%.
On the same counts, the results for `CCS(=O)(=O)NC(=O)c1nc(CN(CCCc2ccccc2)C(=O)[C@H](O)c2ccc(OC)cc2)sc1C` [Example 266] are 123 to 125 °C, 65 nM and 15%.
The molecule `COc1cc(C(=O)N(CCCc2ccc(Cl)s2)Cc2nc(C(=O)NS(N)(=O)=O)cs2)cc(OC)c1C` [Example 110] displayed a melting point of 154 to 156 °C. For the same molecule, the IC50 at human LPA1 came out at 11 nM.
For `COc1cc(C(=O)N(CCCc2ccccc2)Cc2nc(C(=O)NS(=O)(=O)NC(C)=O)cs2)cc(OC)c1C` [Example 168, N-(acetylsulfamoyl)-2-{[(3,5-dimethoxy-4-methylbenzoyl)(3-phenylpropyl)amino]methyl}-1,3-thiazole-4-carboxamide], the half-maximal inhibitory concentration (IC50) on human LPA1 came out at 17 nM.
For `COc1cc(C(=O)N(CCCc2ccccc2)Cc2nc(C(=O)NS(=O)(=O)CCO)cs2)cc(OC)c1C` [Example 167], on human LPA1, the IC50 was 12 nM. Moreover, the inhibition in vivo at 0.1 mg/kg in data set [1] came to 35%.
With `CNS(=O)(=O)NC(=O)c1nc(CN(CCCc2cccs2)C(=O)[C@H](O)c2ccc(OC)cc2)sc1C` [Example 283], the melting point is 106 to 109 °C. The IC50 on human LPA1 came out at 29 nM.
For `COc1cc(C(=O)N(CCCc2ccccc2)Cc2csc(C(=O)NS(N)(=O)=O)n2)cc(OC)c1C` [Example 62], the melting point lay in the range of 173 to 175 °C. Moreover, the IC50 at human LPA1 was determined as 11 nM.
As for `CNS(=O)(=O)NC(=O)c1csc(CN(CCCc2ccsc2)C(=O)c2cc(OC)c(C)c(OC)c2)n1` [Example 137], the concentration for half-maximal inhibition (IC50) at human LPA1 was 9.9 nM. Moreover, the inhibition in vivo at 0.1 mg/kg in data set [1] was determined as 17%.
As to `COc1cc(C(=O)N(CCCc2ccccc2)Cc2nc(C(=O)NS(=O)(=O)CC(C)O)cs2)cc(OC)c1C` (stereo not drawn) [Example 175], on human LPA1, the 50% inhibitory concentration (IC50) amounted to 23 nM.
As for `CNS(=O)(=O)NC(=O)c1nc(CN(CCCc2ccccc2)C(=O)c2cc(OC)c(Cl)c(OC)c2)sc1Cl` [Example 162], the inhibition in vivo at 0.1 mg/kg in data set [1] is 21%.
Turning to `CCNS(=O)(=O)[N-]C(=O)c1csc(CN(CCCc2ccccc2)C(=O)c2cc(OC)c(C)c(OC)c2)n1.[K+]`, the melting point was 203 to 205 °C.
Take `COc1ccc(C2(C(=O)N(CCCc3ccco3)Cc3nc(C(=O)NS(=O)(=O)N(C)C)c(C)s3)CC2)cc1` [Example 233]: the IC50 on human LPA1 turned out to be 22 nM. The inhibition in vivo at 0.1 mg/kg in data set [1] stood at 38%.
In turn, `COc1cc(C(=O)N(CCCc2ccccc2F)Cc2nc(C(=O)NS(N)(=O)=O)cs2)cc(OC)c1C` [Example 113] returned a melting point of 145 to 146 °C. Also, the IC50 at human LPA1 amounted to 12 nM.
Take `COc1cc(C(=O)N(CCCc2ccccc2)Cc2nc(C(=O)NS(=O)(=O)Nc3ccccn3)cs2)cc(OC)c1C` [Example 79]: at human LPA1, the 50% inhibitory concentration (IC50) stood at 16 nM.
Consider `COc1cc(C(=O)N(CCCc2ccccc2)Cc2ccc(C(=O)NS(N)(=O)=O)o2)cc(OC)c1C` [Example 123], for which the IC50 on human LPA1 stood at 7.5 nM. Besides, the inhibition in vivo at 0.1 mg/kg in data set [1] was 39%.
`COc1ccc(C2(C(=O)N(CCCc3ccco3)Cc3nc(C(=O)NS(=O)(=O)N(C)C)c(C)s3)CC2)nc1` [Example 221] had a melting point of 112 to 113 °C.
As for `COc1cc(C(=O)N(CCCc2cc(F)ccc2F)Cc2nc(C(=O)NS(N)(=O)=O)cs2)cc(OC)c1C` [Example 115], on human LPA1, the IC50 was determined as 16 nM.
On to `COc1cc(C(=O)N(CCCc2ccc(C)o2)Cc2nc(C(=O)NS(N)(=O)=O)cs2)cc(OC)c1C` [Example 111], for which the IC50 at human LPA1 turned out to be 6.6 nM. For the same molecule, in data set [1], the inhibition in vivo at 0.1 mg/kg came out at 56%.
Consider `COCc1c(OC)cc(C(=O)N(CCCc2ccccc2)Cc2nc(C(=O)NS(=O)(=O)NOC)c(C)s2)cc1OC` [Example 161], for which the melting point was 151 to 153 °C.
On the same count and under the same terms, to `CCS(=O)(=O)NC(=O)c1nc(CN(CCCc2ccccc2)C(=O)[C@H](O)c2ccc(OC)cc2F)sc1C` [Example 278] belongs 111 to 112 °C; to `COc1ccc(C2(C(=O)N(CCCc3ccccc3)Cc3nc(C(=O)NS(=O)(=O)N(C)C)c(C)s3)CC2)nc1` [Example 31], 125 to 126 °C.
`COc1cc(C(=O)N(CCCc2ccccc2)Cc2nc(C(=O)NS(N)(=O)=O)co2)cc(OC)c1C` [Example 121] gave a melting point of 136 to 141 °C. Besides, the half-inhibitory concentration (IC50) at human LPA1 stood at 19 nM.
With `COc1ccc([C@@H](O)C(=O)N(CCCc2ccccc2)Cc2nc(C(=O)NS(=O)(=O)N(C)C)c(C)s2)cc1` [Example 290], the melting point fell in the range of 110 to 112 °C. In addition, the IC50 on human LPA1 worked out at 33 nM.
`COc1cc(C(=O)N(CCCc2ccccc2F)Cc2nc(C(=O)NS(=O)(=O)N(C)C)cs2)cc(OC)c1C` [Example 119] showed a melting point of 128 to 131 °C.
With `Cc1cc(C(=O)N(CCCc2ccccc2)Cc2nc(C(=O)NS(N)(=O)=O)c(Cl)s2)cc(C)c1O` [Example 147], the IC50 at human LPA1 is 16 nM.
Take `COc1ccc(C2(C(=O)N(CCCc3cccc(F)c3)Cc3nc(C(=O)[N-]S(=O)(=O)N(C)C)c(C)s3)CC2)nc1.[K+]`: the melting point lay in the range of 219 to 221 °C.
On the same count and under the same terms, to `COc1ccc([C@@H](O)C(=O)N(CCCc2cccs2)Cc2nc(C(=O)NS(=O)(=O)N(C)C)c(C)s2)cc1` [Example 256] belongs 118 to 120 °C.
As to `COc1ccc(C2(C(=O)N(CCCc3ccc(C)o3)Cc3nc(C(=O)NS(=O)(=O)N(C)C)c(C)s3)CC2)nc1` [Example 200], the IC50 on human LPA1 was found to be 33 nM. Moreover, the inhibition in vivo at 0.1 mg/kg in data set [1] amounted to 31%.
For the molecule `CCS(=O)(=O)NC(=O)c1nc(CN(CCCc2cccs2)C(=O)[C@H](O)c2ccc(OC)cc2)sc1C` [Example 272], the melting point fell in the range of 124 to 126 °C. For the same molecule, on human LPA1, the IC50 was 44 nM.
